Measured values as given in ChEMBL document CHEMBL4680202, “Development, synthesis and biological investigation of a novel class of potent PC-PLC inhibitors” (Eur J Med Chem, 2020).

Tested on: Bacillus cereus
Assay: Inhibition of Bacillus cereus PC-PLC assessed as residual activity at 10 uM using phosphatidylcholine as substrate measured after 1 hr by horseradish peroxidase/alkaline phosphatase/choline oxidase-coupled amplex red reagent based fluorescence assay relative to control

Structure (SMILES)	Activity
CN1CCN(c2ccc(NCc3cccc(F)c3)cc2)CC1	44.2%
CC(C)(C)OC(=O)N1CCN(c2ccc(NCc3cccc(Cl)c3)cc2)CC1	36.8%
COC(=O)c1cc(NCc2ccccc2C)ccc1N1CCOCC1	58.4%
CC(C)(C)OC(=O)N1CCN(c2ccc(NCc3ccccc3F)cc2)CC1	29.4%
Fc1cccc(CNc2ccc(N3CCNCC3)cc2)c1	26%
Cc1cc(C)c(CNc2ccc(N3CCOCC3)c(C(=O)O)c2)c(C)c1	45.3%
CC(C)(C)OC(=O)N1CCN(c2ccc(NCc3ccccc3Br)cc2)CC1	35.6%
Brc1ccccc1CNc1ccc(N2CCNCC2)cc1	26.8%
Fc1cccc(CNc2ccc(N3CCCCC3)cc2)c1	10.7%
O=C(O)c1cc(NCc2cccc(Br)c2)ccc1N1CCOCC1	20.4%
Cc1ccccc1CNc1ccc(N2CCN(C(=O)OC(C)(C)C)CC2)cc1	32.2%
c1ccc(CNc2ccc(N3CCOCC3)cc2)cc1	0%
COc1ccccc1CNc1ccc(N2CCOCC2)c(C(=O)O)c1	32.5%
COC(=O)c1cc(NCc2ccc(OC)cc2)ccc1N1CCOCC1	58.9%
Clc1cccc(CNc2ccc(N3CCOCC3)cc2)c1	9.1%
COC(=O)c1cc(NCc2cccc(O)c2)ccc1N1CCOCC1	52.8%
COC(=O)c1cc(NCc2cccc(C)c2)ccc1N1CCOCC1	54%
COc1ccccc1CNc1ccc(N2CCN(C)CC2)cc1	29.3%
CC(C)(C)OC(=O)N1CCN(c2ccc(NCc3ccccc3C(F)(F)F)cc2)CC1	41.3%
COC(=O)c1cc(NCc2ccc(-c3ccccc3)cc2)ccc1N1CCOCC1	100%
Oc1ccccc1CNc1ccc(N2CCOCC2)cc1	0%
COc1ccccc1CNc1ccc(N2CCCCC2)cc1	9.9%
Cc1ccccc1CNc1ccc(N2CCNCC2)cc1	29.3%
Clc1ccccc1CNc1ccc(N2CCOCC2)cc1	7.9%
O=C(O)c1cc(NCc2ccc(O)cc2)ccc1N1CCOCC1	43.8%
CN1CCN(c2ccc(NCc3ccccc3O)cc2)CC1	13.4%

Structure (SMILES)	Activity
CN1CCN(c2ccc(NCc3ccccc3C(F)(F)F)cc2)CC1	25.4%
COC(=O)c1cc(NCc2cccc(Br)c2)ccc1N1CCOCC1	60.9%
Cc1ccc(CNc2ccc(N3CCOCC3)cc2)cc1	5.4%
Cc1cccc(CNc2ccc(N3CCOCC3)c(C(=O)O)c2)c1	23.7%
COc1ccccc1CNc1ccc(N2CCOCC2)cc1	1.2%
Cc1cc(C)c(CNc2ccc(N3CCOCC3)cc2)c(C)c1	28.9%
Clc1ccc(CNc2ccc(N3CCOCC3)cc2)cc1	12.9%
CN1CCN(c2ccc(NCc3ccc(Cl)cc3)cc2)CC1	16.6%
Cc1cccc(CNc2ccc(N3CCOCC3)cc2)c1	8.3%
CC(C)(C)OC(=O)N1CCN(c2ccc(NCc3ccccc3)cc2)CC1	42.3%
O=C(O)c1cc(NCc2ccccc2Br)ccc1N1CCOCC1	40.4%
Fc1ccc(CNc2ccc(N3CCNCC3)cc2)cc1	21.1%
COC(=O)c1cc(NCc2ccccc2O)ccc1N1CCOCC1	38.6%
CC(C)(C)OC(=O)N1CCN(c2ccc(NCc3ccc(Cl)cc3)cc2)CC1	53.3%
FC(F)(F)c1ccc(CNc2ccc(N3CCOCC3)cc2)cc1	27.6%
CN1CCN(c2ccc(NCc3ccccc3)cc2)CC1	31.5%
O=C(O)c1cc(NCc2cccc(O)c2)ccc1N1CCOCC1	41.6%
Brc1ccccc1CNc1ccc(N2CCCCC2)cc1	28%
COc1ccc(CNc2ccc(N3CCOCC3)cc2)cc1	3.2%
Cc1ccccc1CNc1ccc(N2CCN(C)CC2)cc1	40.9%
O=C(O)c1cc(NCc2ccccc2C(F)(F)F)ccc1N1CCOCC1	34.1%
Fc1cccc(CNc2ccc(N3CCOCC3)cc2)c1	6.1%
Fc1ccc(CNc2ccc(N3CCOCC3)cc2)cc1	1.8%
Brc1ccc(CNc2ccc(N3CCOCC3)cc2)cc1	18.1%
Clc1ccccc1CNc1ccc(N2CCNCC2)cc1	31%
CC(C)(C)OC(=O)N1CCN(c2ccc(NCc3ccccc3Cl)cc2)CC1	43.2%

Structure (SMILES)	Activity
Oc1ccc(CNc2ccc(N3CCCCC3)cc2)cc1	11%
COC(=O)c1cc(NCc2ccccc2F)ccc1N1CCOCC1	56.8%
COC(=O)c1cc(NCc2cccc(OC)c2)ccc1N1CCOCC1	64.6%
CN1CCN(c2ccc(NCc3ccccc3Cl)cc2)CC1	29.7%
COc1ccccc1CNc1ccc(N2CCNCC2)cc1	27.7%
O=C(O)c1cc(NCc2ccccc2O)ccc1N1CCOCC1	40%
COc1cccc(CNc2ccc(N3CCOCC3)cc2)c1	5.6%
COC(=O)c1cc(NCc2ccc(O)cc2)ccc1N1CCOCC1	48.3%
c1ccc(CNc2ccc(N3CCCCC3)cc2)cc1	8.1%
Cc1ccc(CNc2ccc(N3CCOCC3)c(C(=O)O)c2)cc1	33.4%
COC(=O)c1cc(NCc2cccc(F)c2)ccc1N1CCOCC1	64.5%
COC(=O)c1cc(NCc2cccc(C(F)(F)F)c2)ccc1N1CCOCC1	64.1%
CC(C)(C)OC(=O)N1CCN(c2ccc(NCc3cccc(O)c3)cc2)CC1	18.4%
COC(=O)c1cc(NCc2ccc(C(F)(F)F)cc2)ccc1N1CCOCC1	78.6%
COC(=O)c1cc(NCc2ccc(Br)cc2)ccc1N1CCOCC1	77.3%
COC(=O)c1cc(NCc2ccc(Cl)cc2)ccc1N1CCOCC1	87.5%
O=C(O)c1cc(NCc2cccc(C(F)(F)F)c2)ccc1N1CCOCC1	44.6%
FC(F)(F)c1cccc(CNc2ccc(N3CCOCC3)cc2)c1	23.4%
COc1ccc(CNc2ccc(N3CCOCC3)c(C(=O)O)c2)cc1	32.3%
Oc1cccc(CNc2ccc(N3CCNCC3)cc2)c1	30.9%
CC(C)(C)OC(=O)N1CCN(c2ccc(NCc3ccccc3O)cc2)CC1	26.5%
COC(=O)c1cc(NCc2ccccc2C(F)(F)F)ccc1N1CCOCC1	83%
FC(F)(F)c1ccccc1CNc1ccc(N2CCNCC2)cc1	30.4%
Clc1ccc(CNc2ccc(N3CCNCC3)cc2)cc1	31.3%
Brc1ccccc1CNc1ccc(N2CCOCC2)cc1	14.1%
O=C(O)c1cc(NCc2ccc(Cl)cc2)ccc1N1CCOCC1	26.7%

Structure (SMILES)	Activity
O=C(O)c1cc(NCc2ccc(Br)cc2)ccc1N1CCOCC1	28.7%
Fc1ccc(CNc2ccc(N3CCCCC3)cc2)cc1	6.6%
O=C(O)c1cc(NCc2ccccc2F)ccc1N1CCOCC1	29.9%
COC(=O)c1cc(NCc2ccccc2Br)ccc1N1CCOCC1	56.7%
CN1CCN(c2ccc(NCc3ccc(F)cc3)cc2)CC1	23.9%
Oc1ccc(CNc2ccc(N3CCOCC3)cc2)cc1	6.5%
O=C(O)c1cc(NCc2ccc(F)cc2)ccc1N1CCOCC1	30.3%
Cc1ccccc1CNc1ccc(N2CCOCC2)cc1	2.2%
CN1CCN(c2ccc(NCc3ccccc3Br)cc2)CC1	20%
O=C(O)c1cc(NCc2ccccc2Cl)ccc1N1CCOCC1	11.5%
Clc1ccccc1CNc1ccc(N2CCCCC2)cc1	22.6%
COC(=O)c1cc(NCc2ccc(F)cc2)ccc1N1CCOCC1	48.9%
O=C(O)c1cc(NCc2ccccc2)ccc1N1CCOCC1	32.5%
Brc1cccc(CNc2ccc(N3CCOCC3)cc2)c1	11.6%
COC(=O)c1cc(NCc2ccccc2OC)ccc1N1CCOCC1	43.7%
Fc1ccccc1CNc1ccc(N2CCCCC2)cc1	9%
Oc1ccc(CNc2ccc(N3CCNCC3)cc2)cc1	51.3%
c1ccc(CNc2ccc(N3CCNCC3)cc2)cc1	26.3%
COc1cccc(CNc2ccc(N3CCOCC3)c(C(=O)O)c2)c1	28.1%
CC(C)(C)OC(=O)N1CCN(c2ccc(NCc3ccc(O)cc3)cc2)CC1	23.9%
COC(=O)c1cc(NCc2cccc(Cl)c2)ccc1N1CCOCC1	65.6%
O=C(O)c1cc(NCc2ccc(C(F)(F)F)cc2)ccc1N1CCOCC1	45.5%
Clc1cccc(CNc2ccc(N3CCNCC3)cc2)c1	27.4%
O=C(O)c1cc(NCc2cccc(F)c2)ccc1N1CCOCC1	49.5%
Cc1ccccc1CNc1ccc(N2CCCCC2)cc1	14.7%
O=C(O)c1cc(NCc2cccc(Oc3ccccc3)c2)ccc1N1CCOCC1	47.5%

Structure (SMILES)	Activity
Clc1ccc(CNc2ccc(N3CCCCC3)cc2)cc1	23%
COC(=O)c1cc(NCc2cccc(Oc3ccccc3)c2)ccc1N1CCOCC1	130%
CC(C)(C)OC(=O)N1CCN(c2ccc(NCc3ccc(F)cc3)cc2)CC1	68.3%
Oc1ccccc1CNc1ccc(N2CCNCC2)cc1	37.9%
Oc1ccccc1CNc1ccc(N2CCCCC2)cc1	14.8%
Oc1cccc(CNc2ccc(N3CCCCC3)cc2)c1	7.6%
O=C(O)c1cc(NCc2ccc(-c3ccccc3)cc2)ccc1N1CCOCC1	40.1%
Cc1ccccc1CNc1ccc(N2CCOCC2)c(C(=O)O)c1	35%
CN1CCN(c2ccc(NCc3cccc(Cl)c3)cc2)CC1	19.5%
COc1ccccc1CNc1ccc(N2CCN(C(=O)OC(C)(C)C)CC2)cc1	19.9%
CN1CCN(c2ccc(NCc3ccc(O)cc3)cc2)CC1	9.4%
Clc1cccc(CNc2ccc(N3CCCCC3)cc2)c1	24.7%
CN1CCN(c2ccc(NCc3ccccc3F)cc2)CC1	42.7%
COC(=O)c1cc(NCc2ccc(C)cc2)ccc1N1CCOCC1	54.3%
c1ccc(Oc2cccc(CNc3ccc(N4CCOCC4)cc3)c2)cc1	39.3%
FC(F)(F)c1ccccc1CNc1ccc(N2CCCCC2)cc1	49.3%
COC(=O)c1cc(NCc2ccccc2Cl)ccc1N1CCOCC1	73.1%
CC(C)(C)OC(=O)N1CCN(c2ccc(NCc3cccc(F)c3)cc2)CC1	33.5%
Oc1cccc(CNc2ccc(N3CCOCC3)cc2)c1	3.4%
Fc1ccccc1CNc1ccc(N2CCNCC2)cc1	24.1%
COC(=O)c1cc(NCc2ccccc2)ccc1N1CCOCC1	57.7%
CN1CCN(c2ccc(NCc3cccc(O)c3)cc2)CC1	12.7%
